Laboratory results published in patent US9303042B2, “Triazolothienopyrimidine compound inhibitors of urea transporters and methods of using inhibitors” (The Regents of the University of California, priority 2012, dated 2016).

molecular target: T1, UT-B (Mus musculus, UniProt Q8VHL0); assay: Erythrocyte lysis assay of UT-B inhibition; type: cell-based; set-up: Screening was performed using mouse erythrocytes, which strongly express UT-B; endogenous in cells; host or cells: erythrocytes in whole blood of wild-type CD1 mice; settings: not given
T1 sequence (Q8VHL0 1-384): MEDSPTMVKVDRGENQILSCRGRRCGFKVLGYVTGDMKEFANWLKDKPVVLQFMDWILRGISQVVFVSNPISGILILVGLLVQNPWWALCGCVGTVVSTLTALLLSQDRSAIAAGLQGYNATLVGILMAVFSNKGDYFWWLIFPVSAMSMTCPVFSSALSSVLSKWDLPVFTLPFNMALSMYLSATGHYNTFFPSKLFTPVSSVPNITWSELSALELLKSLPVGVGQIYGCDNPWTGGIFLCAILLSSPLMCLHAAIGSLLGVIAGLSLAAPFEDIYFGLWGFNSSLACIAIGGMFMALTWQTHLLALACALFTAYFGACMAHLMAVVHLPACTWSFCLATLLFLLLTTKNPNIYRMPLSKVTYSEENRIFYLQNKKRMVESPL
Experimental: Screening was performed using mouse erythrocytes, which strongly express UT-B and are highly water permeable because the cells also express aquaporin-1 (AQP1) water channels. The screening method involved assay of erythrocyte lysis in response to a large, outwardly directed gradient of acetamide, a urea analog that is transported efficiently by UT-B. A large, outwardly directed gradient of acetamide causes transient cell swelling, but little cell lysis, because UT-B-facilitated acetamide efflux limits water influx (see FIG. 1A). UT-B inhibition prevents acetamide efflux, allowing unopposed cell swelling and consequent cell lysis, which was recorded by reduced near-infrared light absorption at 710 nm.
Primary screening was done using a collection of 100,000 diverse, drug-like compounds from commercial sources (ChemDiv, San Diego, Calif.; Asinex, Winston-Salem, N.C.). […] Vigorous mixing was achieved by repeated pipetting. Erythrocyte lysis was quantified by absorbance at 710 nm wavelength, made within 5 min after hypo-osmolar shock. […] For analysis of structure-activity relationships >900 commercially available analogs (ChemDiv and Asinex) were tested.

Structure (SMILES) | IC50
CCc1ccc(S(=O)(=O)c2nnn3c2nc(N2CCOCC2)c2sccc23)cc1 [Compound 2bq] | 5.71 µM

same assay, conditions: Table 1, commercially available analogues, erythrocyte lysis assay; read-out: IC50

IC50 | Structure (SMILES)
2.5 µM | COCCNc1nc2c(S(=O)(=O)c3ccc(C)c(C)c3)nnn2c2ccsc12 [Compound 2ba, {3-[3,4-dimethyl-benzenesulfonyl]-thieno[2,3-e][1,2,3]triazolo[1,5-a]pyrimidin-5-yl}-2-methoxyethyl-amine]
5.64 µM | Cc1ccc(S(=O)(=O)c2nnn3c2nc(NCc2ccc(F)cc2)c2sccc23)cc1C [Compound 2be, [3-(3,4-dimethyl-benzenesulfonyl)-thieno[2,3-e][1,2,3]triazolo[1,5-a]pyrimidin-5-yl]-(4-fluoro-benzyl)-amine]
0.374 µM | CCc1ccc(S(=O)(=O)c2nnn3c2nc(NCc2ccc(Cl)cc2)c2sccc23)cc1 [Compound 2bt, [3-(4-ethyl-benzenesulfonyl)-thieno[2,3-e][1,2,3]triazolo[1,5-a]pyrimidin-5-yl]-(4-chloro-benzyl)-amine]
2.48 µM | Cc1ccc(S(=O)(=O)c2nnn3c2nc(NCCCOC(C)C)c2sccc23)cc1C [Compound 2ax, {3-[3,4-dimethyl-benzenesulfonyl]-thieno[2,3-e][1,2,3]triazolo[1,5-a]pyrimidin-5-yl}-3-(1-methylethoxyl)propyl-amine]
0.865 µM | CCCCNc1nc2c(S(=O)(=O)c3cc(C)ccc3C)nnn2c2ccsc12 [Compound 2cn]
7.66 µM | NC(=O)C1CCN(c2nc3c(S(=O)(=O)c4ccccc4)nnn3c3ccsc23)CC1 [Compound 2aa]
8.46 µM | CCc1ccc(S(=O)(=O)c2nnn3c2nc(NCCN(C)C)c2sccc23)cc1 [Compound 2ch]
6.38 µM | Cc1ccc(S(=O)(=O)c2nnn3c2nc(NC2CCCC2)c2sccc23)cc1 [Compound 2al]
11.7 µM | Cc1ccc(S(=O)(=O)c2nnn3c2nc(NCCCOC(C)C)c2sccc23)cc1 [Compound 2af, {3-[4-methyl-benzenesulfonyl]-thieno[2,3-e][1,2,3]triazolo[1,5-a]pyrimidin-5-yl}-3-(1-methylethoxyl)propyl-amine]
3.77 µM | COc1cccc(CNc2nc3c(S(=O)(=O)c4ccc(C)c(C)c4)nnn3c3ccsc23)c1 [Compound 2ay, [3-(3,4-dimethyl-benzenesulfonyl)-thieno[2,3-e][1,2,3]triazolo[1,5-a]pyrimidin-5-yl]-(3-methoxy-benzyl)-amine]
2.08 µM | O=S(=O)(c1cccc(Cl)c1)c1nnn2c1nc(NCc1cccs1)c1sccc12 [Compound 2cw, {3-[3-chloro-benzenesulfonyl]-thieno[2,3-e][1,2,3]triazolo[1,5-a]pyrimidin-5-yl}-thiophen-2-ylmethyl-amine]
3.14 µM | NC(=O)C1CCN(c2nc3c(S(=O)(=O)c4cccc(Cl)c4)nnn3c3ccsc23)CC1 [Compound 2cv]
1.65 µM | Cc1ccc(C)c(S(=O)(=O)c2nnn3c2nc(NCc2ccccc2)c2sccc23)c1 [Compound 2cq, [3-(2,5-dimethyl-benzenesulfonyl)-thieno[2,3-e][1,2,3]triazolo[1,5-a]pyrimidin-5-yl]-benzyl-amine]
11.9 µM | CCc1ccc(S(=O)(=O)c2nnn3c2nc(N2CCN(CC)CC2)c2sccc23)cc1 [Compound 2cd]
8.19 µM | Cc1ccc(S(=O)(=O)c2nnn3c2nc(NC2CCCCC2)c2sccc23)cc1C [Compound 2bb]
0.671 µM | Cc1ccc(C)c(S(=O)(=O)c2nnn3c2nc(NCc2ccc(F)cc2)c2sccc23)c1 [Compound 2cp, [3-(2,5-dimethyl-benzenesulfonyl)-thieno[2,3-e][1,2,3]triazolo[1,5-a]pyrimidin-5-yl]-(4-fluoro-benzyl)-amine]
1.54 µM | CCc1ccc(S(=O)(=O)c2nnn3c2nc(NC2CCCC2)c2sccc23)cc1 [Compound 2bz]
2.31 µM | COCCCNc1nc2c(S(=O)(=O)c3ccc(Cl)cc3)nnn2c2ccsc12 [Compound 2bj, {3-[4-chloro-benzenesulfonyl]-thieno[2,3-e][1,2,3]triazolo[1,5-a]pyrimidin-5-yl}-3-methoxypropyl-amine]

IC50 | Structure (SMILES)
3.34 µM | Cc1ccc(C)c(S(=O)(=O)c2nnn3c2nc(N2CCC(C(N)=O)CC2)c2sccc23)c1 [Compound 2ci]
0.59 µM | CCc1ccc(S(=O)(=O)c2nnn3c2nc(N2CCN(C)CC2)c2sccc23)cc1 [Compound 2cc]
2.15 µM | Cc1ccc(S(=O)(=O)c2nnn3c2nc(NCc2ccco2)c2sccc23)cc1 [Compound 2ac, furan-2-ylmethyl-[3-(4-methyl-benzenesulfonyl)-thieno[2,3-e][1,2,3]triazolo[1,5-a]pyrimidin-5-yl]-amine]
5.74 µM | Cc1ccc(S(=O)(=O)c2nnn3c2nc(NCC2CCCO2)c2sccc23)cc1 (centres unmarked) [Compound 2ae, tetrahydrofuran-2-ylmethyl-[3-(4-methyl-benzenesulfonyl)-thieno[2,3-e][1,2,3]triazolo[1,5-a]pyrimidin-5-yl]-amine]
2.49 µM | CCN(CC)c1nc2c(S(=O)(=O)c3ccc(C)c(C)c3)nnn2c2ccsc12 [Compound 2ap]
4.08 µM | CCOCCCNc1nc2c(S(=O)(=O)c3ccc(C(C)C)cc3)nnn2c2ccsc12 [Compound 2bl, {3-[4-isopropyl-benzenesulfonyl]-thieno[2,3-e][1,2,3]triazolo[1,5-a]pyrimidin-5-yl}-3-ethoxylpropyl-amine]
2.87 µM | COCCNc1nc2c(S(=O)(=O)c3ccc(C)cc3)nnn2c2ccsc12 [Compound 2ai, {3-[4-methyl-benzenesulfonyl]-thieno[2,3-e][1,2,3]triazolo[1,5-a]pyrimidin-5-yl}-2-methoxyethyl-amine]
11.2 µM | Cc1ccc(S(=O)(=O)c2nnn3c2nc(NC(C)c2ccccc2)c2sccc23)cc1 (centres unmarked) [Compound 2ag, [3-(4-methyl-benzenesulfonyl)-thieno[2,3-e][1,2,3]triazolo[1,5-a]pyrimidin-5-yl]-(1-phenyl-1-methyl)methyl-amine]
7.88 µM | CCN1CCN(c2nc3c(S(=O)(=O)c4ccc(C)cc4)nnn3c3ccsc23)CC1 [Compound 2ak]
0.702 µM | Cc1ccc(C)c(S(=O)(=O)c2nnn3c2nc(NC(C)c2ccccc2)c2sccc23)c1 (centres unmarked) [Compound 2cm, [3-(2,5-dimethyl-benzenesulfonyl)-thieno[2,3-e][1,2,3]triazolo[1,5-a]pyrimidin-5-yl]-(1-phenyl-1-methyl)methyl-amine]
9.85 µM | CCOCCCNc1nc2c(S(=O)(=O)c3cc(C)ccc3C)nnn2c2ccsc12 [Compound 2ck, {3-[2,5-dimethyl-benzenesulfonyl]-thieno[2,3-e][1,2,3]triazolo[1,5-a]pyrimidin-5-yl}-3-ethoxypropyl-amine]
2.66 µM | Cc1ccc(C)c(S(=O)(=O)c2nnn3c2nc(NCc2ccco2)c2sccc23)c1 [Compound 2cs, furan-2-ylmethyl-[3-(2,5-dimethyl-benzenesulfonyl)-thieno[2,3-e][1,2,3]triazolo[1,5-a]pyrimidin-5-yl]-amine]
2.66 µM | CC(C)c1ccc(S(=O)(=O)c2nnn3c2nc(NCC2CCCO2)c2sccc23)cc1 (centres unmarked) [Compound 2bk, tetrahydrofuran-2-ylmethyl-[3-(4-isopropyl-benzenesulfonyl)-thieno[2,3-e][1,2,3]triazolo[1,5-a]pyrimidin-5-yl]-amine]
2.12 µM | Cc1ccc(S(=O)(=O)c2nnn3c2nc(N2CCC(C(N)=O)CC2)c2sccc23)cc1C [Compound 2aq]
2.19 µM | Cc1ccc(S(=O)(=O)c2nnn3c2nc(NC(C)C)c2sccc23)cc1C [Compound 2av]
2.75 µM | COc1cccc(CNc2nc3c(S(=O)(=O)c4ccc(C)cc4)nnn3c3ccsc23)c1 [Compound 2ah, [3-(4-methyl-benzenesulfonyl)-thieno[2,3-e][1,2,3]triazolo[1,5-a]pyrimidin-5-yl]-(3-methoxy-benzyl)-amine]
2.06 µM | Cc1ccc(C)c(S(=O)(=O)c2nnn3c2nc(NCCCOC(C)C)c2sccc23)c1 [Compound 2cl, {3-[2,5-dimethyl-benzenesulfonyl]-thieno[2,3-e][1,2,3]triazolo[1,5-a]pyrimidin-5-yl}-3-(1-methylethoxyl)propyl-amine]

same assay, conditions: Table 2, synthesized inhibitors, red blood cell lysis assay (n = 3), single-site saturation model; read-out: IC50

IC50 | Structure (SMILES)
0.196 µM | O=S(=O)(c1cccs1)c1nnn2c1nc(NCc1cccs1)c1sccc12 [Compound 3g, [3-(Thiophene-2-sulfonyl)-thieno[2,3-e][1,2,3]triazolo[1,5-a]pyrimidin-5-yl]-thiophen-2-ylmethyl-amine]

tested on: not listed separately; assay: In vitro metabolic stability in hepatic microsomes; type: in vitro ADME, rat; settings: 10 min, liver microsomes, NADPH, compound 5 μM
Experimental: Compounds, each at 5 μM, were incubated for specified times at 37° C. with rat liver microsomes (1 mg protein/ml; Sigma-Aldrich, St. Louis, Mo.) in potassium phosphate buffer (100 mM) containing 1 mM NADPH. The mixture was then chilled on ice, and 0.5 ml of ice-cold ethyl acetate was added.

% Remaining after 10 min incubation with liver microsomes | Structure (SMILES)
81% | CCc1ccc(S(=O)(=O)c2nnn3c2nc(NCc2ccc(Cl)cc2)c2sccc23)cc1 [Compound 2bt, [3-(4-ethyl-benzenesulfonyl)-thieno[2,3-e][1,2,3]triazolo[1,5-a]pyrimidin-5-yl]-(4-chloro-benzyl)-amine]
57% | CCCCNc1nc2c(S(=O)(=O)c3cc(C)ccc3C)nnn2c2ccsc12 [Compound 2cn]

same assay, conditions: hepatic microsomes

metabolic stability (in words) | Structure (SMILES)
improved metabolic stability | CCc1ccc(S(=O)(=O)c2nnn3c2nc(NCc2ccc(Cl)cc2)c2sccc23)cc1 [Compound 2bt, [3-(4-ethyl-benzenesulfonyl)-thieno[2,3-e][1,2,3]triazolo[1,5-a]pyrimidin-5-yl]-(4-chloro-benzyl)-amine]

same assay, conditions: parent molecule after 30 min incubation with rat liver microsomes

% Remaining | Structure (SMILES)
<5% | O=S(=O)(c1cccs1)c1nnn2c1nc(NCc1cccs1)c1sccc12 [Compound 3g, [3-(Thiophene-2-sulfonyl)-thieno[2,3-e][1,2,3]triazolo[1,5-a]pyrimidin-5-yl]-thiophen-2-ylmethyl-amine]
